Assay results as given in ChEMBL document CHEMBL1201862, “PubChem BioAssay data set” (2004).
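Following 48 hours of exposure in 96-well plates, responses at five concentrations were used to interpolate endpoints linearly. At the GI50, growth is halved.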 The source made the active and inactive calls. No stated cut-off is given here; in the data, active = GI50 up to about 1.1 µM and inactive = higher.

Assays:
Experiment in all cases: growth of human tumour cells (NCI), 48 h
SK-MEL-2 = tested on: SK-MEL-2
HT-29 = tested on: HT-29
OVCAR-4 = tested on: OVCAR-4
SR = tested on: SR
K562 = tested on: K562
TK-10 = tested on: TK-10
HCT-116 = tested on: HCT-116
UACC-62 = tested on: UACC-62
MDA-MB-231 = tested on: MDA-MB-231
BT-549 = tested on: BT-549
LOX IMVI = tested on: LOX IMVI
Hs-578T = tested on: Hs-578T
RPMI-8226 = tested on: RPMI-8226
OVCAR-8 = tested on: OVCAR-8
SN12C = tested on: SN12C
SNB-19 = tested on: SNB-19
NCI-H460 = tested on: NCI-H460
MCF7 = tested on: MCF7
SK-MEL-5 = tested on: SK-MEL-5

Measured: GI50

CCOC(=O)c1cc2cc(Cc3ccc4[nH]c(C(=O)OCC)cc4c3)ccc2[nH]1
inactive: SK-MEL-2 26.7 µM | HT-29 35.4 µM | OVCAR-4 6.7 µM | SR 41.3 µM | K562 21.9 µM | TK-10 13.9 µM | HCT-116 38.5 µM | UACC-62 13.6 µM | MDA-MB-231 15.5 µM | BT-549 12.6 µM | LOX IMVI 38.7 µM | Hs-578T 12.6 µM | RPMI-8226 28.6 µM | OVCAR-8 5.94 µM | SN12C 23.7 µM | SNB-19 13 µM | NCI-H460 24.1 µM | MCF7 52.4 µM

c1ccc2c(c1)-c1nc3ccccc3cc1C2N1CCOCC1 (configuration not stated)
inactive: SK-MEL-2 > 100 µM | HT-29 92.5 µM | OVCAR-4 47.6 µM | SR > 100 µM | K562 > 100 µM | TK-10 > 100 µM | HCT-116 > 100 µM | UACC-62 97.5 µM | MDA-MB-231 > 100 µM | BT-549 > 100 µM | LOX IMVI > 100 µM | Hs-578T 46.6 µM | RPMI-8226 72.1 µM | OVCAR-8 93.5 µM | SK-MEL-5 82.4 µM | SN12C > 100 µM | SNB-19 > 100 µM | MCF7 > 100 µM

NC(=O)C(=CNC(N)=S)C(N)=O
inactive: SK-MEL-2 > 100 µM | HT-29 > 100 µM | OVCAR-4 > 100 µM | SR > 100 µM | K562 > 100 µM | HCT-116 > 100 µM | UACC-62 > 100 µM | MDA-MB-231 > 100 µM | BT-549 > 100 µM | LOX IMVI > 100 µM | Hs-578T > 100 µM | RPMI-8226 > 100 µM | OVCAR-8 > 100 µM | SK-MEL-5 > 100 µM | SN12C > 100 µM | SNB-19 > 100 µM | NCI-H460 > 100 µM | MCF7 > 100 µM

O=[N+]([O-])c1ccc(-n2nc3ccc4c(no[n+]4[O-])c3n2)cc1
inactive: SK-MEL-2 > 100 µM | HT-29 > 100 µM | OVCAR-4 > 100 µM | SR > 100 µM | K562 > 100 µM | TK-10 > 100 µM | HCT-116 > 100 µM | UACC-62 88.3 µM | MDA-MB-231 > 100 µM | BT-549 > 100 µM | LOX IMVI > 100 µM | Hs-578T > 100 µM | OVCAR-8 > 100 µM | SK-MEL-5 80.2 µM | SN12C > 100 µM | SNB-19 > 100 µM | NCI-H460 33.2 µM | MCF7 82 µM

O=C1CSC(c2cccc(Oc3ccccc3)c2)N1c1cc(Cl)ccc1Cl (configuration not stated)
inactive: SK-MEL-2 18.7 µM | HT-29 22.4 µM | OVCAR-4 17.2 µM | SR 14.9 µM | K562 19.4 µM | TK-10 25.5 µM | HCT-116 17.3 µM | UACC-62 16 µM | MDA-MB-231 20.7 µM | BT-549 19.1 µM | LOX IMVI 20 µM | Hs-578T 29.7 µM | OVCAR-8 23.7 µM | SK-MEL-5 16.5 µM | SN12C 19.5 µM | SNB-19 22.8 µM | NCI-H460 20.1 µM | MCF7 6.3 µM

Cc1ccc2c(c1)Sc1ccc(/N=N/N(C)C)cc1N2C
inactive: SK-MEL-2 > 100 µM | HT-29 > 100 µM | OVCAR-4 > 100 µM | SR 52.8 µM | TK-10 > 100 µM | HCT-116 > 100 µM | UACC-62 > 100 µM | MDA-MB-231 > 100 µM | BT-549 71 µM | LOX IMVI 35.8 µM | Hs-578T > 100 µM | RPMI-8226 59.4 µM | OVCAR-8 > 100 µM | SK-MEL-5 96.2 µM | SN12C > 100 µM | SNB-19 > 100 µM | NCI-H460 54.7 µM | MCF7 87.9 µM

Fc1ccc(Oc2nc3ccc(C(F)(F)F)cc3nc2-c2ccccc2)cc1
inactive: SK-MEL-2 60 µM | HT-29 32.1 µM | OVCAR-4 60.5 µM | SR 24.3 µM | K562 > 10 µM | TK-10 51.2 µM | HCT-116 85.1 µM | UACC-62 39.8 µM | MDA-MB-231 > 100 µM | BT-549 > 100 µM | LOX IMVI > 100 µM | Hs-578T 28.2 µM | OVCAR-8 > 100 µM | SK-MEL-5 68.1 µM | SN12C > 100 µM | SNB-19 87.9 µM | NCI-H460 66.2 µM | MCF7 28.8 µM

CCOC1NC(=O)Oc2cc3ccccc3cc21 (configuration not stated)
inactive: HT-29 > 100 µM | OVCAR-4 > 100 µM | SR 48.5 µM | K562 40.6 µM | TK-10 > 100 µM | HCT-116 35 µM | UACC-62 42.6 µM | MDA-MB-231 > 100 µM | BT-549 44.1 µM | LOX IMVI 67.1 µM | Hs-578T > 100 µM | RPMI-8226 95.9 µM | OVCAR-8 48.6 µM | SK-MEL-5 > 100 µM | SN12C > 100 µM | SNB-19 64.3 µM | NCI-H460 > 100 µM | MCF7 35.6 µM

CS(=O)(=O)CC(=O)c1ccccc1
inactive: SK-MEL-2 > 100 µM | HT-29 > 100 µM | OVCAR-4 > 100 µM | SR > 100 µM | K562 > 100 µM | TK-10 > 100 µM | HCT-116 > 100 µM | UACC-62 > 100 µM | BT-549 > 100 µM | LOX IMVI > 100 µM | Hs-578T > 100 µM | RPMI-8226 > 100 µM | OVCAR-8 > 100 µM | SK-MEL-5 > 100 µM | SN12C > 100 µM | SNB-19 > 100 µM | NCI-H460 > 100 µM | MCF7 > 100 µM

COC(=O)OC[C@H]1O[C@@H](n2cc(C)c(=O)[nH]c2=O)CC1OC(=O)OC (some centres not stated)
inactive: SK-MEL-2 > 100 µM | HT-29 > 100 µM | OVCAR-4 > 100 µM | SR 61.7 µM | K562 > 100 µM | TK-10 > 100 µM | UACC-62 > 100 µM | MDA-MB-231 > 100 µM | BT-549 > 100 µM | LOX IMVI > 100 µM | Hs-578T > 100 µM | RPMI-8226 > 100 µM | OVCAR-8 > 100 µM | SK-MEL-5 > 100 µM | SN12C > 100 µM | SNB-19 > 100 µM | NCI-H460 > 100 µM | MCF7 > 100 µM

CSC1=N/C(=C\c2ccc(C)cc2)C(=O)N1
inactive: SK-MEL-2 > 100 µM | HT-29 > 100 µM | OVCAR-4 > 100 µM | SR > 100 µM | TK-10 > 100 µM | HCT-116 40.6 µM | UACC-62 89.3 µM | MDA-MB-231 92.7 µM | BT-549 37.8 µM | LOX IMVI 57.3 µM | Hs-578T 32.6 µM | RPMI-8226 > 100 µM | OVCAR-8 95.3 µM | SN12C > 100 µM | SNB-19 58.7 µM | MCF7 50.8 µM

C#CC(C)(C)OC(=O)C(=[N+]=[N-])C(C)=O
inactive: SK-MEL-2 > 10 µM | HT-29 > 10 µM | SR > 10 µM | K562 > 10 µM | TK-10 > 10 µM | HCT-116 > 10 µM | UACC-62 > 10 µM | MDA-MB-231 > 10 µM | BT-549 > 10 µM | LOX IMVI > 10 µM | Hs-578T > 10 µM | RPMI-8226 > 10 µM | OVCAR-8 > 10 µM | SK-MEL-5 > 10 µM | SN12C > 10 µM | SNB-19 > 10 µM | NCI-H460 > 10 µM | MCF7 > 10 µM

Oc1c2cccc1Cc1cccc3c1OCCOCCOCCOCCOc1c(cccc1Cc1cccc(c1O)C3)C2
inactive: SK-MEL-2 > 100 µM | HT-29 54.3 µM | OVCAR-4 > 100 µM | SR 2.06 µM | K562 > 100 µM | TK-10 > 100 µM | HCT-116 7.43 µM | UACC-62 26.7 µM | MDA-MB-231 89.7 µM | BT-549 > 100 µM | LOX IMVI > 100 µM | Hs-578T 18.4 µM | RPMI-8226 > 100 µM | OVCAR-8 85.7 µM | SK-MEL-5 > 100 µM | SN12C > 100 µM | SNB-19 > 100 µM | MCF7 > 100 µM

COc1ccc(-c2c(N)n(-c3nc4ccccc4s3)c(=O)c3cc([N+](=O)[O-])ccc23)cc1
inactive: SK-MEL-2 25.4 µM | HT-29 49 µM | OVCAR-4 24.1 µM | SR 8.39 µM | K562 23.2 µM | TK-10 38.1 µM | HCT-116 20.1 µM | UACC-62 > 100 µM | MDA-MB-231 16.9 µM | BT-549 89.9 µM | LOX IMVI 14.9 µM | Hs-578T 13.7 µM | RPMI-8226 1.81 µM | OVCAR-8 11.2 µM | SNB-19 40.1 µM | NCI-H460 3.69 µM | MCF7 44.8 µM

Cc1occc1/C(S)=N\c1ccc(Cl)c(C(=O)OCC2CC2)c1
inactive: SK-MEL-2 47.4 µM | HT-29 34.7 µM | OVCAR-4 32 µM | K562 18.8 µM | TK-10 34.8 µM | HCT-116 43.9 µM | UACC-62 31.3 µM | MDA-MB-231 37.8 µM | BT-549 22.7 µM | LOX IMVI 29.2 µM | Hs-578T 46.9 µM | RPMI-8226 23.1 µM | OVCAR-8 39.9 µM | SK-MEL-5 41.2 µM | SN12C 34.9 µM | SNB-19 54.2 µM | NCI-H460 57.9 µM | MCF7 38.5 µM
